According to patent USRE48335E1, “Polymyxin derivatives as antimicrobial compounds” (priority 2014, dated 2020):
In brackets after ≈: the same amount, converted by molar mass. Where two headings read alike, the source gives them in different places. Positions of bridges follow the written chain, without caps; N, C: chain ends. Non-standard residues stand in square brackets, D forms with d. Residues, ends and D or L forms follow the SMILES beside them. *: point of attachment. Benzoyl(3,5-Cl2) = O=C(c1cc(Cl)cc(Cl)c1)*; X21 = O=C(c1ccc(C(F)(F)F)c(Cl)c1)*; X20 = Cc1cc(C(=O)*)ccc1C(F)(F)F; Dab = NCC[C@H](N)C(=O)O; Abu = CC[C@H](N)C(=O)O; Dap = NC[C@H](N)C(=O)O

Columns and labels:
Acinetobacter baumannii = test system: Acinetobacter baumannii
How it was run: (§1)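 Broth microdilution MICs following CLSI standards in cation-adjusted Mueller-Hinton broth. Lipopeptides tested as TFA salts; polymyxin B sulphate served as control.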

Enterobacter cloacae = test system: Enterobacter cloacae
How it was run: as §1

Klebsiella pneumoniae = test system: Klebsiella pneumoniae
How it was run: as §1

Pseudomonas aeruginosa = test system: Pseudomonas aeruginosa
How it was run: as §1

P. aeruginosa ATCC 27853 = assay: In vivo efficacy in mouse blood infection model (neutropenic Swiss mice); conditions: compound, free base 4 mg/kg intravenously 2 h after inoculation, blood at 4 h
Description: P. aeruginosa ATCC 27853, A. baumannii ATCC 19606 and K. pneumoniae FADDI-KP032 were subcultured on nutrient agar plates. One colony of each bacterial strain was dispersed in 10-mL CAMHB and incubated overnight. On day 2, an aliquot (0.2 mL) of each overnight culture suspension was dispersed in 20-mL CAMHB and incubated for 1.5-2.5 h for production of early log-phase growth bacterial culture. The bacteria in the early log-phase growth suspension were concentrated by centrifugation (3,220 g for 10 min) and re-suspended in sterile 0.9% saline for inoculation into mice. The bacterial cell concentration (colony forming unit [CFU]/mL) in saline was estimated by determining the optical density (OD) of the suspension at 600 nm, and confirmed by plating the suspension on nutrient agar plates. Swiss mice (22 to 28 g) were rendered neutropenic by injecting two doses of cyclophosphamide intraperitoneally, −4 day (150 mg/kg) and −1 day (100 mg/kg) prior to inoculation. Bloodstream infection was established by injecting intravenously 50 μL of early log-phase bacterial suspension (10^8-10^9 CFU/mL). The exact injection volume for each bacterial suspension was calculated based upon the OD value of the bacterial suspension and the desired inoculum for each isolate.
Solutions for administration of colistin, polymyxin B or the compounds were prepared at a concentration of 1 mg (free base) per mL in sterile 0.9% saline. At 2 h after inoculation, a mouse in the treatment groups was injected intravenously with one of the above solutions at 4 μL/g body weight (BW) (i.e. free base 4 mg/kg BW), while the same volume of saline was injected into the control mice. At 0 h or at 4 h after the administration of antibacterial drug or saline (control), animals were euthanised by inhalation of overdose isoflurane. The skin on the chest and fore-paws of each animal was thoroughly cleansed with 70% ethanol and Betadine®. The blood was collected via cardiac puncture using a 1-mL syringe rinsed with heparin (5,000 IU/mL), diluted serially in sterile 0.9% saline and plated on nutrient agar plates using a spiral plater.
The agar plates were incubated at 37° C. overnight. The bacterial colonies on the plate were counted and CFU/mL of the blood was calculated. The log10 CFU/mL of blood in each mouse was calculated. The in vivo activity of the compounds against the bacteria was calculated as the difference of the log10 CFU/mL values between the treated mice and the control mice at 4 h (Δ log=log10 (treated)CFU/mL−log10 (control)CFU/mL).
Any compound showing a decrease in bacterial loading (Δ log) of ≥2 at 4 h is considered to have good in vivo efficacy in this initial screening model.

[1] = Acinetobacter baumannii ATCC 17978, broth microdilution in CAMHB
[2] = Acinetobacter baumannii ATCC 19606, broth microdilution in CAMHB
[3] = Acinetobacter baumannii FADDI-AB034, broth microdilution in CAMHB
[4] = Enterobacter cloacae FADDI-EC001, broth microdilution in CAMHB
[5] = Enterobacter cloacae FADDI-EC003, broth microdilution in CAMHB
[6] = Enterobacter cloacae FADDI-EC006, broth microdilution in CAMHB
[7] = Pseudomonas aeruginosa ATCC 27853, broth microdilution in CAMHB
[8] = Pseudomonas aeruginosa FADDI-PA022, broth microdilution in CAMHB
[9] = Pseudomonas aeruginosa FADDI-PA025, broth microdilution in CAMHB

SMILES | MIC (Acinetobacter baumannii) [µg/mL] | Minimum inhibitory concentration, Ab A ATCC 17978 (Acinetobacter baumannii) [µg/mL] | Minimum inhibitory concentration, Ab ATCC 19606 (Acinetobacter baumannii) [µg/mL] | Minimum inhibitory concentration, Ab FADDI-AB034 (Acinetobacter baumannii) [µg/mL] | Minimum inhibitory concentration, Ec FADDI-EC001 (Enterobacter cloacae) [µg/mL] | Minimum inhibitory concentration, Ec FADDI-EC003 (Enterobacter cloacae) [µg/mL] | Minimum inhibitory concentration, Ec FADDI-EC006 (Enterobacter cloacae) [µg/mL] | MIC (Klebsiella pneumoniae) [µg/mL] | MIC (Pseudomonas aeruginosa) [µg/mL] | Minimum inhibitory concentration, Pa ATCC 27853 (Pseudomonas aeruginosa) [µg/mL] | Minimum inhibitory concentration, Pa FADDI-PA022 (Pseudomonas aeruginosa) [µg/mL] | Minimum inhibitory concentration, Pa FADDI-PA025 (Pseudomonas aeruginosa) [µg/mL] | Δ log (Treated-Control at 4 h) (P. aeruginosa ATCC 27853) [log10 CFU/mL] | MIC (Acinetobacter baumannii; A. baumannii ATCC 19606) [µg/mL] | Minimum inhibitory concentration, Ab A ATCC 17978 (Acinetobacter baumannii; [1]) [µg/mL] | Minimum inhibitory concentration, Ab ATCC 19606 (Acinetobacter baumannii; [2]) [µg/mL] | Minimum inhibitory concentration, Ab FADDI-AB034 (Acinetobacter baumannii; [3]) [µg/mL] | Minimum inhibitory concentration, Ec FADDI-EC001 (Enterobacter cloacae; [4]) [µg/mL] | Minimum inhibitory concentration, Ec FADDI-EC003 (Enterobacter cloacae; [5]) [µg/mL] | Minimum inhibitory concentration, Ec FADDI-EC006 (Enterobacter cloacae; [6]) [µg/mL] | other results
CC[C@@H]1NC(=O)[C@@H](CC(C)C)NC(=O)[C@H](CCN)NC(=O)[C@@H](NC(=O)[C@H](CN)NC(=O)[C@@H](NC(=O)[C@H](CCN)NC(=O)c2ccc(C(F)(F)F)c(Cl)c2)[C@@H](C)O)CCNC(=O)[C@H]([C@@H](C)O)NC(=O)[C@H](CCN)NC(=O)[C@H](CCN)NC1=O [Compound 115] (X21-[Dab]T[Dap][Dab][Dab][dL][Abu][Dab][Dab]T; lactam 4-C) | 0.5 (≈ 0.419 µM) | 0.5 (≈ 0.419 µM) | 0.5 (≈ 0.419 µM) | 0.5 (≈ 0.419 µM) | 0.25 (≈ 0.209 µM) | 0.25 (≈ 0.209 µM) | 0.25 (≈ 0.209 µM) | 0.125 (≈ 0.105 µM) | 1 (≈ 0.838 µM) | 1 (≈ 0.838 µM) | 0.5 (≈ 0.419 µM) | 1 (≈ 0.838 µM) | −2.71 | – | – | – | – | – | – | – | –
CC(C)C[C@H]1NC(=O)[C@H](CCN)NC(=O)[C@@H](NC(=O)[C@H](CN)NC(=O)[C@@H](NC(=O)[C@H](CCN)NC(=O)c2cc(Cl)cc(Cl)c2)[C@@H](C)O)CCNC(=O)[C@H]([C@@H](C)O)NC(=O)[C@H](CCN)NC(=O)[C@H](CCN)NC(=O)[C@H](C)NC1=O [Compound 117] ({Benzoyl(3,5-Cl2)}-[Dab]T[Dap][Dab][Dab][dL]A[Dab][Dab]T; lactam 4-C) | – | – | – | – | – | – | – | – | – | – | – | – | −2.99 | 1 (≈ 0.872 µM) | 0.25 (≈ 0.218 µM) | 1 (≈ 0.872 µM) | 1 (≈ 0.872 µM) | 0.25 (≈ 0.218 µM) | 0.25 (≈ 0.218 µM) | 1 (≈ 0.872 µM) | MIC (Klebsiella pneumoniae; K. pneumoniae FADDI-KP032): 0.25 µg/mL (≈ 0.218 µM); MIC (Pseudomonas aeruginosa; P. aeruginosa ATCC 27853): 0.25 µg/mL (≈ 0.218 µM); Minimum inhibitory concentration, Pa ATCC 27853 (Pseudomonas aeruginosa; [7]): 0.25 µg/mL (≈ 0.218 µM); Minimum inhibitory concentration, Pa FADDI-PA022 (Pseudomonas aeruginosa; [8]): 2 µg/mL (≈ 1.74 µM); Minimum inhibitory concentration, Pa FADDI-PA025 (Pseudomonas aeruginosa; [9]): 2 µg/mL (≈ 1.74 µM)
CC(C)C[C@H]1NC(=O)[C@H](CCN)NC(=O)[C@@H](NC(=O)[C@H](CN)NC(=O)[C@@H](NC(=O)[C@H](CCN)NC(=O)c2cc(Cl)cc(Cl)c2)[C@@H](C)O)CCNC(=O)[C@H]([C@@H](C)O)NC(=O)[C@H](CCN)NC(=O)[C@H](CCN)NC(=O)[C@H]([C@@H](C)O)NC1=O [Compound 118] ({Benzoyl(3,5-Cl2)}-[Dab]T[Dap][Dab][Dab][dL]T[Dab][Dab]T; lactam 4-C) | – | – | – | – | – | – | – | – | – | – | – | – | −3.53 | 2 (≈ 1.7 µM) | >32 | 2 (≈ 1.7 µM) | 1 (≈ 0.85 µM) | 1 (≈ 0.85 µM) | 0.25 (≈ 0.213 µM) | 0.5 (≈ 0.425 µM) | MIC (Klebsiella pneumoniae; K. pneumoniae FADDI-KP032): 0.25 µg/mL (≈ 0.213 µM); MIC (Pseudomonas aeruginosa; P. aeruginosa ATCC 27853): 0.5 µg/mL (≈ 0.425 µM); Minimum inhibitory concentration, Pa ATCC 27853 (Pseudomonas aeruginosa; [7]): 0.5 µg/mL (≈ 0.425 µM); Minimum inhibitory concentration, Pa FADDI-PA022 (Pseudomonas aeruginosa; [8]): 2 µg/mL (≈ 1.7 µM); Minimum inhibitory concentration, Pa FADDI-PA025 (Pseudomonas aeruginosa; [9]): 2 µg/mL (≈ 1.7 µM)
CC[C@@H]1NC(=O)[C@@H](CC(C)C)NC(=O)[C@H](CCN)NC(=O)[C@@H](NC(=O)[C@H](CN)NC(=O)[C@@H](NC(=O)[C@H](CCN)NC(=O)c2ccc(C(F)(F)F)c(C)c2)[C@@H](C)O)CCNC(=O)[C@H]([C@@H](C)O)NC(=O)[C@H](CCN)NC(=O)[C@H](CCN)NC1=O [Compound 119] (X20-[Dab]T[Dap][Dab][Dab][dL][Abu][Dab][Dab]T; lactam 4-C) | 1 (≈ 0.852 µM) | 0.5 (≈ 0.426 µM) | 1 (≈ 0.852 µM) | 0.25 (≈ 0.213 µM) | <0.125 | <0.125 | 0.25 (≈ 0.213 µM) | <0.125 | 0.5 (≈ 0.426 µM) | 0.5 (≈ 0.426 µM) | 0.5 (≈ 0.426 µM) | 2 (≈ 1.7 µM) | −3.40 | – | – | – | – | – | – | – | –
